Source: US6462055B2, “Alpha-methylbenzyl-containing thiourea inhibitors of herpes viruses containing a phenylenediamine group” (Wyeth, priority 1998, dated 2002)
Converted amounts (≈) assume the structure as drawn.

Columns and labels:
[1] = system: HCMV recombinant mutant virus (RV145); test: microbe, parasite or virus in culture; assay type: cell-based, human cytomegalovirus; settings: for IC50: Human betaherpesvirus 5, read-out: IC50 ug/ml HCMV, HCMV
Procedure, shortened: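 Human foreskin fibroblasts infected with HCMV RV145 carrying a viral-promoter-driven beta-glucuronidase gene, in presence of compound. At 96 h post-infection, lysates assayed for beta-glucuronidase with colorimetric or fluorogenic glucuronide substrate as replication read-out. IC50 estimated from varying inhibitor amounts.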

HSV-1 = test: HSV Antiviral (ELISA) Assay in Vero cells; assay type: cell-based, herpes simplex virus type 1; settings: HSV-1, Vero cells; for IC50: Human alphaherpesvirus 1, read-out: IC50 (ug/ml) HSV
Procedure, shortened: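 Viral replication was quantified by cell-fixed ELISA for HSV glycoprotein D, using a β-galactosidase reporter and fluorogenic umbelliferyl substrate, about 24 h after HSV-1 infection (MOI 0.006) of Vero cells. Compounds, at several concentrations, were added 30 min pre-infection. IC50 was derived from fluorescence relative to the compound-free signal.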

VZV strain Ellen = test: VZV Antiviral (ELISA) Assay in human foreskin fibroblast cells; assay type: cell-based, varicella-zoster virus; settings: for IC50 / inhibition at 10 µg/mL: Human alphaherpesvirus 3, Fibroblast; for IC50: read-out: IC50 (ug/ml) VZV; for inhibition at 10 µg/mL: read-out: % inhibition 10 ug/ml VZV, 10 ug/ml
Procedure, shortened: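 HFF cells infected overnight with VZV Ellen at MOI <0.1, mixed with uninfected cells, were seeded with compound and grown 3 days at 37° C in DMEM/2% FBS. Viral glycoprotein II was detected by ELISA with β-galactosidase-linked secondary; IC50 from fluorescence versus no-compound wells.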

SMILES | IC50 ug/ml HCMV [1] [µg/mL] | IC50 (ug/ml) HSV (HSV-1) [µg/mL] | IC50 (ug/ml) VZV (VZV strain Ellen) [µg/mL] | % inhibition 10 ug/ml VZV (VZV strain Ellen) [%] | IC50 [1] [µg/mL] | IC50 (HSV-1) [µg/mL] | IC50 (VZV strain Ellen) [µg/mL] | inhibition at 10 µg/mL (VZV strain Ellen) [%]
COc1ccc(C(=O)Nc2ccc(NC(=S)NC(C)c3ccc(F)cc3)cc2)cc1 (centres unmarked) [Example 754] | >10 | >10 | 0.2 (≈ 0.472 µM) |  |  |  |  | 
COc1cc(C)c(Cl)cc1NC(=S)Nc1ccc(NC(=O)c2c(F)cccc2F)cc1 [Example 333] | 2.5 (≈ 5.41 µM) | 0.04 (≈ 0.0866 µM) | 4.5 (≈ 9.74 µM) | 92 |  |  |  | 
CC(NC(=S)Nc1ccc(NC(=O)c2ccccc2F)cc1)c1cccc(N(C)C)c1 (centres unmarked) [Example 794] | 6.2 (≈ 14.2 µM) | 7 (≈ 16 µM) | 0.4 (≈ 0.916 µM) |  |  |  |  | 
COC(=O)c1cccc(NC(=S)Nc2ccc(NC(=O)c3ccccc3F)cc2)c1 [Example 950, 3-{3-[4-(2-Fluoro-benzoylamino)-phenyl]-thioureido}-benzoic acid methyl ester] |  |  |  |  | > 10 | 8 (≈ 18.9 µM) | > 10 | 
O=C(Nc1ccc(NC(=S)NC(Cc2ccccc2)c2ccc(F)cc2)cc1)c1ccccc1F (centres unmarked) [Example 774] | 0.5 (≈ 1.03 µM) | >10 | >7.5 |  |  |  |  | 
O=C(Nc1ccc(NC(=S)Nc2ccc(OCC(F)(F)F)cc2OCC(F)(F)F)cc1)c1ccccc1F [Example 1010, N-(4-{3-[2,4-Bis-(2,2,2-trifluoro-ethoxy)-phenyl]-thioureido}-phenyl)-2-fluoro-benzamide] |  |  |  |  | > 10 | > 10 | > 10 | 
CN1CCC(N(C)c2ccc(NC(=S)Nc3ccc(NC(=O)c4c(F)cccc4F)cc3)cc2Cl)CC1 [Example 340] | 0.25 (≈ 0.459 µM) | 3 (≈ 5.51 µM) | 4 (≈ 7.35 µM) | 99 |  |  |  | 
COc1cc(OC)c(NC(=S)Nc2ccc(NC(=O)c3ccccc3OC)cc2)cc1Cl [Example 119] | > 10 | 0.5 (≈ 1.06 µM) | >10 | 1 |  |  |  | 
CC(NC(=S)Nc1ccc(NC(=O)c2ccc(O)cc2)cc1)c1ccc(F)cc1 (centres unmarked) [Example 760] |  |  |  |  | > 10 | > 10 | > 10 | 
CC(=O)Nc1cccc(NC(=S)Nc2ccc(NC(=O)c3ccccc3F)cc2)c1 [Example 477] | >10 | >10 | >10 | 15 |  |  |  | 
COc1cc(C)c(Cl)cc1NC(=S)Nc1ccc(NC(=O)c2ccccc2F)cc1Cl [Example 458] | >10 | 0.06 (≈ 0.125 µM) | >10 | 25 |  |  |  | 
CN(C)c1cccc(NC(=S)Nc2ccc(NC(=O)c3ccccc3F)cc2)c1 [Example 454] | 4 (≈ 9.79 µM) | 1.5 (≈ 3.67 µM) | >10 | 55 |  |  |  | 
CN(c1ccc(NC(=S)Nc2ccc(NC(=O)c3c(F)cccc3F)cc2)cc1Cl)C1CCCCC1 [Example 248] | 2 (≈ 3.78 µM) | >10 | 2 (≈ 3.78 µM) | 96 |  |  |  | 
CCN(CC)CC(=O)Nc1ccc(NC(=S)Nc2ccc(NC(=O)c3ccccc3F)cc2)cc1Cl [Example 414] | >10 | 6 (≈ 11.4 µM) | >15 | 70 |  |  |  | 
O=C(O)c1cccc(NC(=S)Nc2ccc(NC(=O)c3ccccc3F)cc2)c1 [Example 963, 3-{3-[4-(2-Fluoro-benzoylamino)-phenyl]-thioureido}-benzoic acid] |  |  |  |  | > 10 | > 10 | > 10 | 30
CC(=O)Oc1ccc(C(=O)Nc2ccc(NC(=S)NC(C)c3ccc(F)cc3)cc2)cc1 (centres unmarked) [Example 757] | >10 | >10 | 1.5 (≈ 3.32 µM) |  |  |  |  | 
CC(N=[N+]=[N-])c1ccc(NC(=S)Nc2ccc(NC(=O)c3ccccc3F)cc2)cc1Cl (centres unmarked) [Example 492] | 2 (≈ 4.26 µM) | >10 | >10 | 32 |  |  |  | 
O=C(Nc1ccc(NC(=S)Nc2cc(Cl)cc(Cl)c2)cc1)c1ccccc1F [Example 934, N-{4-[3-(3,5-Dichloro-phenyl)-thioureido]-phenyl}-2-fluoro-benzamide] |  |  |  |  | > 10 | > 10 | > 10 | 18
COc1cc(OC)c(NC(=S)Nc2ccc(NC(=O)c3ccc(F)cc3F)cc2)cc1Cl [Example 188] | >10 | 1.2 (≈ 2.51 µM) | >10 | 22 |  |  |  | 

SMILES | IC50 ug/ml HCMV [1] [µg/mL] | IC50 (ug/ml) HSV (HSV-1) [µg/mL] | IC50 (ug/ml) VZV (VZV strain Ellen) [µg/mL] | % inhibition 10 ug/ml VZV (VZV strain Ellen) [%] | IC50 [1] [µg/mL] | IC50 (HSV-1) [µg/mL] | IC50 (VZV strain Ellen) [µg/mL] | inhibition at 10 µg/mL (VZV strain Ellen) [%]
Nc1cc(Cl)cc(NC(=S)Nc2ccc(NC(=O)c3ccccc3F)cc2)c1 [Example 442] | 2 (≈ 4.82 µM) | 1 (≈ 2.41 µM) | 8 (≈ 19.3 µM) | 81 |  |  |  | 
Nc1c(Br)cc(NC(=S)Nc2ccc(NC(=O)c3ccccc3F)cc2)cc1Br [Example 519] | 1.7 (≈ 3.16 µM) | 0.4 (≈ 0.743 µM) | >10 | 18 |  |  |  | 
CC(NC(=S)Nc1ccc(NC(=O)c2ccccc2F)cc1)c1cccc(Cl)c1 (centres unmarked) [Example 779] | 1.2 (≈ 2.8 µM) | >10 | >7.5 |  |  |  |  | 
COc1cc(OC)c(NC(=S)Nc2ccc(NC(=O)c3ccccc3Cl)cc2)cc1Cl [Example 141] | 6 (≈ 12.6 µM) | 0.25 (≈ 0.525 µM) | >10 | 40 |  |  |  | 
CN(C)c1ccc(NC(=S)Nc2ccc(NC(=O)c3c(F)cccc3F)cc2)cc1Cl [Example 348] | 0.8 (≈ 1.74 µM) | 4 (≈ 8.68 µM) | 8 (≈ 17.4 µM) | 95 |  |  |  | 
CC(NC(=S)Nc1ccc(NC(=O)c2ccccc2F)cc1)c1ccccc1C(F)(F)F (centres unmarked) [Example 785] |  |  |  |  | > 2.2 | > 10 | > 7.5 | 
CCOC(=O)Nc1ccc(NC(=S)Nc2ccc(NC(=O)c3ccccc3F)cc2)cc1Cl [Example 399] | 1.5 (≈ 3.08 µM) | >10 | >10 | 59 |  |  |  | 
CC1CCCCN1CC(=O)Nc1ccc(NC(=S)Nc2ccc(NC(=O)c3ccccc3F)cc2)cc1Cl (centres unmarked) [Example 425] | 0.5 (≈ 0.902 µM) | 3 (≈ 5.41 µM) | >7.5 | 103 |  |  |  | 
CCCCOc1ccc(NC(=S)Nc2ccc(NC(=O)c3ccccc3F)cc2)cc1Cl [Example 809] | >10 | >10 | >7.5 |  |  |  |  | 
O=C(Nc1ccc(NC(=S)NCCc2ccc(F)cc2)cc1)c1ccccc1F [Example 553] |  |  |  |  | > 0.5 | > 10 | 7 (≈ 17 µM) | 
CN1CCC(N(C)c2ccc(NC(=S)Nc3ccc(NC(=O)c4ccccc4F)cc3)cc2Cl)C1 (centres unmarked) [Example 332] | 0.9 (≈ 1.76 µM) | 1 (≈ 1.95 µM) | 8 (≈ 15.6 µM) | 90 |  |  |  | 
Cc1ccccc1C(C)NC(=S)Nc1ccc(NC(=O)c2ccccc2F)cc1 (centres unmarked) [Example 775] | 1 (≈ 2.45 µM) | >10 | >7.5 |  |  |  |  | 
COc1ccc(C(C)NC(=S)Nc2ccc(NC(=O)c3ccccc3F)cc2)cc1 (centres unmarked) [Example 777] | 1.7 (≈ 4.01 µM) | >10 | >7.5 |  |  |  |  | 
O=C(Nc1ccc(NC(=S)Nc2cc(Cl)ccc2Cl)cc1)c1ccccc1F [Example 931, N-{4-[3-(2,5-Dichloro-phenyl)-thioureido]-phenyl}-2-fluoro-benzamide] |  |  |  |  | > 10 | 4 (≈ 9.21 µM) | > 10 | 51
O=C(CN1CCSCC1)Nc1ccc(NC(=S)Nc2ccc(NC(=O)c3ccccc3F)cc2)cc1Cl [Example 407] | >10 | 4 (≈ 7.17 µM) | 0.7 (≈ 1.25 µM) | 87 |  |  |  | 
CC(NC(=S)Nc1ccc(NC(=O)c2nccc3ccccc23)cc1)c1ccc(F)cc1 (centres unmarked) [Example 976, Isoquinoline-1-carboxylic acid (4-{3-[1-(4-fluoro-phenyl)-ethyl]-thioureido}-phenyl)-amide] | >10 |  |  |  |  | > 10 | 0.04 (≈ 0.09 µM) | 
COc1ccc(C(=O)Nc2ccc(NC(=S)Nc3cc(Cl)c(OC)cc3OC)cc2)cc1 [Example 121] | 6 (≈ 12.7 µM) | 0.3 (≈ 0.636 µM) | >10 | 0 |  |  |  | 
COc1cc(OC)c(NC(=S)Nc2ccc(NC(=O)c3cccc(NC(C)=O)c3)cc2)cc1Cl [Example 134] | 4 (≈ 8.02 µM) | > 10 | >10 | 50 |  |  |  | 
O=C(Nc1ccc(NC(=S)NCc2ccccc2)cc1)c1ccccc1F [Example 536] | >10 | >10 | >10 |  |  |  |  | 
